Activity calls are given as the source filed them. The rule behind the calls is not given here.
Experiments:
MIN6 [1] = experiment: Cytotoxicity against mouse MIN6 cells assessed as reduction in cell viability up to 200 uM incubated for 24 hrs by MTT assay; type: cell-based; settings: min6, 24 h
[2] = Cytotoxicity against mouse MIN6 cells assessed as cell viability at 400 uM incubated for 24 hrs by MTT assay; type: cell-based; settings: read-out: Activity
MIN6 [3] = experiment: Antidiabetic activity in mouse MIN6 cells after 35 passages assessed as increase in insulin secretion at 100 uM in presence of 25 mM glucose by ELISA relative to control; type: functional
MIN6 [4] = experiment: Antidiabetic activity in mouse MIN6 cells after 83 passages assessed as increase in insulin secretion at 100 uM in presence of 25 mM glucose by ELISA relative to control; type: functional
[5] = target: Aldo-keto reductase family 1 member B1 (Homo sapiens, UniProt P15121); experiment: Inhibition of human recombinant ALR2 expressed in Escherichia coli using DL-glyceraldehyde as substrate and NADPH preincubated for 5 mins followed by substrate addition and measured after 30 mins at 2 mins interval by spectrophotometry relative to control
[6] = target: Aldo-keto reductase family 1 member A1 (Rattus norvegicus, UniProt P51635); experiment: Inhibition of rat kidney ALR1 using DL-glyceraldehyde as substrate and NADPH preincubated for 5 mins followed by substrate addition and measured for 30 mins at 2 mins interval by spectrophotometry relative to control
Aldo-keto reductase family 1 member A1, sequence (P51635 whole entry, looked up): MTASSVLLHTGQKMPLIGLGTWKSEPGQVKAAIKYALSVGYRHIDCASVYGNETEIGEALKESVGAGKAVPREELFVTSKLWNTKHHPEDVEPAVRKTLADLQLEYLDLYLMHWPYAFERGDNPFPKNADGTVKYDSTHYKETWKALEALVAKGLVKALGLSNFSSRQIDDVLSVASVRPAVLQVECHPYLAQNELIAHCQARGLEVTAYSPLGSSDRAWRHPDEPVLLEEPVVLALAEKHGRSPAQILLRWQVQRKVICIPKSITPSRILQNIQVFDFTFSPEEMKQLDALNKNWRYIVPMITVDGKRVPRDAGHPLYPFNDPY

[7] = Selectivity ratio of IC50 for rat kidney ALR1 IC50 to IC50 for human recombinant ALR2
[8] = target: Aldo-keto reductase family 1 member B1 (Rattus norvegicus) (UniProt P07943); experiment: (§1) Inhibition of ALR2 in rat erythrocytes assessed as reduction in sorbitol accumulation incubated for 3 hrs in presence of 28 mM glucose by gas chromatographic analysis relative to control; type: cell-based
[9] = target: T1, Aldo-keto reductase family 1 member B1 (Rattus norvegicus, UniProt P07943); experiment: as §1; type: cell-based
[10] = target: Aldo-keto reductase family 1 member B1 (Rattus norvegicus) (UniProt P07943); experiment: (§2) Inhibition of ALR2 in rat sciatic nerve assessed as reduction in sorbitol accumulation incubated for 3 hrs in presence of 28 mM glucose by gas chromatographic analysis
[11] = target: T1, Aldo-keto reductase family 1 member B1; experiment: as §2
[12] = target: Aldo-keto reductase family 1 member B1 (Rattus norvegicus) (UniProt P07943); experiment: (§3) Inhibition of ALR2 in rat lens assessed as reduction in sorbitol accumulation incubated for 3 hrs in presence of 28 mM glucose by gas chromatographic analysis relative to control
[13] = target: T1, Aldo-keto reductase family 1 member B1; experiment: as §3
[14] = Antioxidant activity assessed as DPPH radical scavenging activity at 100 uM incubated for 30 mins under dark condition by spectrophotometry; type: functional
[15] = Cytotoxicity against HEK293 cells assessed as reduction in cell viability at 25 uM incubated for 48 hrs by MTT assay relative to control; type: cell-based; settings: human, read-out: INH
[16] = Cytotoxicity against HEK293 cells assessed as reduction in cell viability at 50 uM incubated for 48 hrs by MTT assay relative to control; type: cell-based; settings: human, read-out: INH
[17] = Cytotoxicity against HEK293 cells assessed as reduction in cell viability at 100 uM incubated for 48 hrs by MTT assay relative to control; type: cell-based; settings: human, read-out: INH
[18] = Cytotoxicity against HEK293 cells assessed as reduction in cell viability at 200 uM incubated for 48 hrs by MTT assay relative to control; type: cell-based; settings: human, read-out: INH
MIN6 [19] = experiment: Effect on cell morphology in mouse MIN6 cells assessed as cell viability up to 400 uM incubated for 24 hrs; type: cell-based; settings: min6, 24 h
MIN6 [20] = experiment: Antidiabetic activity in mouse MIN6 cells after 35 passages assessed as increase in insulin secretion incubated for 48 hrs presence of 1 mM glucose by ELISA; type: functional, cell-based
MIN6 [21] = experiment: Antidiabetic activity in mouse MIN6 cells after 35 passages assessed as increase in insulin secretion incubated for 48 hrs presence of 25 mM glucose by ELISA; type: functional, cell-based
MIN6 [22] = experiment: Antidiabetic activity in mouse MIN6 cells after 83 passages assessed as increase in insulin secretion incubated for 48 hrs presence of 1 mM glucose by ELISA; type: functional, cell-based
MIN6 [23] = experiment: Antidiabetic activity in mouse MIN6 cells after 83 passages assessed as increase in insulin secretion incubated for 48 hrs presence of 25 mM glucose by ELISA; type: functional, cell-based
Mus musculus = experiment: Antihyperglycemic activity in alloxanized BALB/c mouse assessed as reduction in blood glucose level at 150 mg/kg, po measured after 8 hrs relative to control; type: functional
[24] = Antioxidant activity assessed as DPPH radical scavenging activity at 10 uM incubated for 30 mins under dark condition by spectrophotometry; type: functional
[25] = Antioxidant activity assessed as DPPH radical scavenging activity at 50 uM incubated for 30 mins under dark condition by spectrophotometry; type: functional

Row | SMILES | Activity (MIN6 [1]) | viability at 24 h, 400 µM [2] [%] | Activity (MIN6 [3]) [%] | Activity (MIN6 [4]) [%] | IC50 [5] [µM] | IC50 [6] [µM] | Ratio IC50 [7] | inhibition [8] | IC50 [9] [µM] | inhibition [10] | IC50 [11] [µM] | inhibition [12] | IC50 [13] [µM] | inhibition [14] [%] | cytotoxicity at 48 h, 25 µM [15] [%] | cytotoxicity at 48 h, 50 µM [16] [%] | cytotoxicity at 48 h, 100 µM [17] [%] | cytotoxicity at 48 h, 200 µM [18] [%] | Activity (MIN6 [19]) | inhibition [24] [%] | also measured
1 | O=C1NC(=O)C2(CCCc3ccccc32)N1S(=O)(=O)c1ccc(Br)cc1 (stereo not given) | Non-Toxic | 81 | 210 | 160 | 5.72 | 41.4 | 7.23 | Dose-dependent effect | 2.79 | Dose-dependent effect | 2.72 | Dose-dependent effect | 2.5 | 1.59 | 12.8 | 18.8 | 19.4 | 25.8 | Non-Toxic |  | 
2 | CCCCNC(=O)NS(=O)(=O)c1ccc(C)cc1 [TOLBUTAMIDE] |  |  | 340 | 110 |  |  |  |  |  |  |  |  |  |  |  |  |  |  |  |  | Activity (MIN6 [20]): Active; Activity (MIN6 [21]): Active; Activity (MIN6 [22]): Active; Activity (MIN6 [23]): Active; inhibition in vivo at 150 mg/kg (Mus musculus): 47.2%
3 | COc1ccc(S(=O)(=O)N2C(=O)NC(=O)C23CCCc2ccccc23)cc1 (stereo not given) | Non-Toxic | 81 | 170 | 122 | 5.66 | 10.6 | 1.88 | Dose-dependent effect | 7.15 | Dose-dependent effect | 6.37 | Dose-dependent effect | 7.44 | 66.8 | 14 | 21.1 | 25.2 | 27.5 | Non-Toxic | 41.4 | inhibition [25]: 53.3%
4 | CC(=O)c1ccc(S(=O)(=O)N2C(=O)NC(=O)C23CCCc2ccccc23)cc1 (stereo not given) | Non-Toxic | 81 | 370 | 228 | 0.64 | 32.2 | 53.7 | Dose-dependent effect | 0.6 | Dose-dependent effect | 0.67 | Dose-dependent effect | 0.65 | 75.5 | 16.3 | 23.2 | 26.6 | 34.6 | Non-Toxic | 25.2 | Activity (MIN6 [20]): Active; Activity (MIN6 [21]): Active; Activity (MIN6 [22]): Active; Activity (MIN6 [23]): Active; inhibition [25]: 39.7%; inhibition in vivo at 150 mg/kg (Mus musculus): 52.2%
5 | O=C1NC2(CCCc3ccccc32)C(=O)N1S(=O)(=O)c1ccc(Br)cc1 (stereo not given) | Non-Toxic | 81 | 165 |  | 10.8 | 44.1 | 4.07 | Dose-dependent effect | 11.1 | Dose-dependent effect | 10.4 | Dose-dependent effect | 10.9 | 1.55 | 16.9 | 18.9 | 21.1 | 39.3 | Non-Toxic |  | 
6 | CC(C)c1ccc(S(=O)(=O)N2C(=O)NC3(CCCc4ccccc43)C2=O)cc1 (stereo not given) | Non-Toxic | 81 | 295 | 84 | 8.02 | 32.5 | 4.05 | Dose-dependent effect | 10.3 | Dose-dependent effect | 13 | Dose-dependent effect | 10.7 | 92.3 | 10.1 | 12.5 | 12.6 | 18.5 | Non-Toxic | 82.3 | Activity (MIN6 [20]): inactive; Activity (MIN6 [21]): inactive; Activity (MIN6 [22]): inactive; inhibition [25]: 84.2%
7 | COc1ccc(S(=O)(=O)N2C(=O)NC3(CCCc4ccccc43)C2=O)cc1 (stereo not given) | Non-Toxic | 81 | 142 |  | 11.7 | 25.6 | 2.2 | Dose-dependent effect | 20.4 | Dose-dependent effect | 19.4 | Dose-dependent effect | 15.8 | 66.9 | 15.4 | 13.6 | 18.5 | 26.6 | Non-Toxic | 31.6 | inhibition [25]: 45.3%

From ChEMBL document CHEMBL4387705, “Synthesis of new arylsulfonylspiroimidazolidine-2',4'-diones and study of their effect on stimulation of insulin release from MIN6 cell line, inhibition of human aldose reductase, sorbitol accumulations in various tissues and oxidative stress” (Eur J Med Chem, 2019)
